Where no end group is shown, it is not given here. [ ]: non-standard residue; d: D form. The star is where a group is joined. Orn = NCCC[C@H](N)C(=O)O; Hexanoyl = CCCCCC(=O)*; Aib = CC(C)(N)C(=O)O
Biological target: T1, human VPAC2 (Homo sapiens, UniProt P41587)
T1 construct: expressed in transfected cells
T1 sequence (P41587 24-438): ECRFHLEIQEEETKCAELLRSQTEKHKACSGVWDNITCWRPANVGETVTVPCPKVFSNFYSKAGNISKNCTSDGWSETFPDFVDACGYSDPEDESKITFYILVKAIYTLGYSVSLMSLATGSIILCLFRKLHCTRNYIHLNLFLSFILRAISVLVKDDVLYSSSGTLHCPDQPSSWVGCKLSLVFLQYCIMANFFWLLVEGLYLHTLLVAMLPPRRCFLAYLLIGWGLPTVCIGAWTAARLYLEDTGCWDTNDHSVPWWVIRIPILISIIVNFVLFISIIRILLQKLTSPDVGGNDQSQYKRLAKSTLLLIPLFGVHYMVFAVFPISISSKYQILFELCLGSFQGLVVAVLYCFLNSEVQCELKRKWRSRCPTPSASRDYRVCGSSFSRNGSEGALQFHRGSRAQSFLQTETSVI
Assay: Alpha screen cAMP in vitro potency, human VPAC2 receptor
Type: cell-based
Conditions: cAMP generation; single result from two analyses performed in a single run; read-out: Human VPAC2 Receptor: Alpha Screen EC50
Procedure, shortened: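 Dissociated cells, 50,000 per point in stimulation buffer, were incubated with stimuli and AlphaScreen acceptor beads for 60 min.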

Point of comparison: “Hexanoyl-HSDAVFTKNYTRLRKQVAAKKYLQSIKNKRYGGPSSGAPPPS [Agonist P160]”, EC50 13.2 nM. Against it:
- Hexanoyl-HSDAVFTDNYTRL[Aib]KQVAAKKYLQSIKNKRYGGPSSGAPPPS [Agonist P167] — 78-fold lower, 0.17 nM
- Hexanoyl-HSDAVFTDNYTRL[Aib]KQVAAQKYLQSIKNKRYGGPSSGAPPPS [Agonist P243] — 47-fold lower, 0.28 nM
- Hexanoyl-HSDAVFTDNYTRL[Orn][Aib]QVAA[Aib]KYLQSIKNKRYGGPSSGAPPPS [Agonist P319] — 51-fold lower, 0.26 nM
- Hexanoyl-HSDAVFTEEYTRLQKQVAAKQYLQSIKNKRYGGPSSGAPPPS [Agonist P165] — 14-fold lower, 0.94 nM
- Hexanoyl-HSD[Aib]VFTDNYTRLRKQVAAKKYLQSIKNKRYGGPSSGAPPPS [Agonist P209] — 130-fold lower, 0.1 nM
- Hexanoyl-HVDAVFTDNYTRLRKQVAAKKYLQSIKNKRYGGPSSGAPPPS [Agonist P99] — 94-fold lower, 0.14 nM

Biological target: T1, human VPAC2
Assay: Filter binding assay, membranes of stable VPAC2 cell line, 125I-labeled VIP tracer (Table 2)
Conditions: read-out: Human VPAC2 Receptor Binding
Procedure, shortened: (§1)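 Scintillation counting of filter-retained radioligand gave the read-out. Compounds competed with the labelled tracer (about 40000 cpm) for 2.5 μg membranes during 1 hour of shaking in HEPES pH 7.4 buffer containing 0.5% BSA.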

Point of comparison: “Hexanoyl-HSD[Aib]VFTDNYTRLRKQVAAKKYLQSIKNKRYGGPSSGAPPPS [Agonist P209]”, IC50 0.2 nM. Against it:
- Hexanoyl-HSDAVFTDNYTRL[Aib]KQVAAKKYLQSIKNKRYGGPSSGAPPPS [Agonist P167] — 5.7-fold higher, 1.14 nM
- Hexanoyl-HSDAVFTDNYTRL[Aib]KQVAAQKYLQSIKNKRYGGPSSGAPPPS [Agonist P243] — 28-fold higher, 5.51 nM
- Hexanoyl-HSDAVFTDNYTRL[Orn][Aib]QVAA[Aib]KYLQSIKNKRYGGPSSGAPPPS [Agonist P319] — 3.4-fold higher, 0.69 nM
- Hexanoyl-HSDAVFTEEYTRLQKQVAAKQYLQSIKNKRYGGPSSGAPPPS [Agonist P165] — 92-fold higher, 18.4 nM
- Hexanoyl-HSDAVFTKNYTRLRKQVAAKKYLQSIKNKRYGGPSSGAPPPS [Agonist P160] — 24-fold higher, 4.77 nM
- Hexanoyl-HVDAVFTDNYTRLRKQVAAKKYLQSIKNKRYGGPSSGAPPPS [Agonist P99] — 8.6-fold higher, 1.72 nM

Test system: not listed separately
Assay: Rat serum stability studies (remaining active peptide by DiscoveRx cAMP on CHO-VPAC2 cells)
Type: in vitro ADME
Conditions: not given
Procedure, shortened: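 Rat serum, 18 h: +aprotinin aliquot at 4° C, no-aprotinin aliquot at 37° C. Then 30 min RT step, supernatant removed, 1 h shaking at 300 rpm. DiscoveRx cAMP kit on CHO-VPAC2; EC50 from cAMP data vs standards.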

Point of comparison: “Hexanoyl-HVDAVFTDNYTRLRKQVAAKKYLQSIKNKRYGGPSSGAPPPS [Agonist P99]”, “Rat Serum Stability (estimated purity in % after 18 hours)” value 0.61%. Against it:
- Hexanoyl-HSDAVFTDNYTRL[Aib]KQVAAKKYLQSIKNKRYGGPSSGAPPPS [Agonist P167] — higher, 14.98%
- Hexanoyl-HSDAVFTDNYTRL[Aib]KQVAAQKYLQSIKNKRYGGPSSGAPPPS [Agonist P243] — higher, 12.12%
- Hexanoyl-HSDAVFTDNYTRL[Orn][Aib]QVAA[Aib]KYLQSIKNKRYGGPSSGAPPPS [Agonist P319] — higher, 13.53%
- Hexanoyl-HSDAVFTEEYTRLQKQVAAKQYLQSIKNKRYGGPSSGAPPPS [Agonist P165] — higher, 7.28%
- Hexanoyl-HSD[Aib]VFTDNYTRLRKQVAAKKYLQSIKNKRYGGPSSGAPPPS [Agonist P209] — lower, 0.13%

In the case of “Hexanoyl-HSDAVFTKNYTRLRKQVAAKKYLQSIKNKRYGGPSSGAPPPS [Agonist P160]”, the “Rat Serum Stability (estimated purity in % after 18 hours)” value is reported as less than 4.25%.

Biological target: T2, human VPAC1 (Homo sapiens, UniProt P32241)
T2 sequence (P32241 31-457): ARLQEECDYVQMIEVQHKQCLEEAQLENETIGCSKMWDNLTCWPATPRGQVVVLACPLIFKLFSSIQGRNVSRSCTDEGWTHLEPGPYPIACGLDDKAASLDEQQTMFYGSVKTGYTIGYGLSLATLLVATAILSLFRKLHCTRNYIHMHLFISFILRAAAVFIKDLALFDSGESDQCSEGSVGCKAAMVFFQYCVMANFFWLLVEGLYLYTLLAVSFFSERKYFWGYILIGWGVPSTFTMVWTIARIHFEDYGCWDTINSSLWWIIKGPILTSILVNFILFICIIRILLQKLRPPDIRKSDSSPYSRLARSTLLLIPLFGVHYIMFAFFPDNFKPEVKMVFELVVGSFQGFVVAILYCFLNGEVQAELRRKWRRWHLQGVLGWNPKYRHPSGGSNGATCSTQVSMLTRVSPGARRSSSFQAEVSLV
Assay: Filter binding assay, membranes of cells transiently transfected with human VPAC1, 125I-labeled VIP tracer (Table 2)
Set-up: expressed in transfected cells
Conditions: read-out: Human VPAC1 Receptor Binding
Procedure, shortened: as §1

Point of comparison: “Hexanoyl-HSDAVFTEEYTRLQKQVAAKQYLQSIKNKRYGGPSSGAPPPS [Agonist P165]”, IC50 486 nM. Against it:
- Hexanoyl-HSDAVFTDNYTRL[Aib]KQVAAKKYLQSIKNKRYGGPSSGAPPPS [Agonist P167] — 2.4-fold higher, 1150 nM
- Hexanoyl-HSDAVFTDNYTRL[Aib]KQVAAQKYLQSIKNKRYGGPSSGAPPPS [Agonist P243] — higher, > 3000 nM
- Hexanoyl-HSDAVFTDNYTRL[Orn][Aib]QVAA[Aib]KYLQSIKNKRYGGPSSGAPPPS [Agonist P319] — higher, > 3000 nM
- Hexanoyl-HSDAVFTKNYTRLRKQVAAKKYLQSIKNKRYGGPSSGAPPPS [Agonist P160] — 9.7-fold lower, 50.3 nM
- Hexanoyl-HSD[Aib]VFTDNYTRLRKQVAAKKYLQSIKNKRYGGPSSGAPPPS [Agonist P209] — 3.7-fold lower, 130 nM
- Hexanoyl-HVDAVFTDNYTRLRKQVAAKKYLQSIKNKRYGGPSSGAPPPS [Agonist P99] — within 1.5-fold, 394 nM

Biological target: T3, human PAC1 (Homo sapiens, UniProt P41586)
T3 sequence (P41586 21-468): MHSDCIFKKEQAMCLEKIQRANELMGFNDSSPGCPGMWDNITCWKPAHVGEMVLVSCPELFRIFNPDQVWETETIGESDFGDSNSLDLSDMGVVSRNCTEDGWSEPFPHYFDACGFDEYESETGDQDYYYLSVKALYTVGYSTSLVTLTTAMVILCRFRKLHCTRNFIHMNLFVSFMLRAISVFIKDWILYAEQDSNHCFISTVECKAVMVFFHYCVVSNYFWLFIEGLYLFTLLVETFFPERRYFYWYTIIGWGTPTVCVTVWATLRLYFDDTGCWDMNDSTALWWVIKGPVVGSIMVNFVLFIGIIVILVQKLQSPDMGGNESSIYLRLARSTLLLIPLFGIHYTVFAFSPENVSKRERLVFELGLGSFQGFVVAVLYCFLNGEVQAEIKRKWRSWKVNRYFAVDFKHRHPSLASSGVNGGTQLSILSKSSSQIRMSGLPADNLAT
Assay: Filter binding assay, membranes of cells transiently transfected with human PAC1, 125I-labeled PACAP-27 tracer (Table 2)
Set-up: expressed in transfected cells
Conditions: read-out: Human PAC1 Receptor Binding
Procedure, shortened: as §1

Point of comparison: “Hexanoyl-HSD[Aib]VFTDNYTRLRKQVAAKKYLQSIKNKRYGGPSSGAPPPS [Agonist P209]”, IC50 343 nM. Against it:
- Hexanoyl-HSDAVFTDNYTRL[Aib]KQVAAKKYLQSIKNKRYGGPSSGAPPPS [Agonist P167] — 2.9-fold higher, 1010 nM
- Hexanoyl-HSDAVFTDNYTRL[Aib]KQVAAQKYLQSIKNKRYGGPSSGAPPPS [Agonist P243] — higher, > 25000 nM
- Hexanoyl-HSDAVFTDNYTRL[Orn][Aib]QVAA[Aib]KYLQSIKNKRYGGPSSGAPPPS [Agonist P319] — higher, > 25000 nM
- Hexanoyl-HSDAVFTEEYTRLQKQVAAKQYLQSIKNKRYGGPSSGAPPPS [Agonist P165] — 8.3-fold higher, 2860 nM
- Hexanoyl-HSDAVFTKNYTRLRKQVAAKKYLQSIKNKRYGGPSSGAPPPS [Agonist P160] — within 1.5-fold, 262 nM
- Hexanoyl-HVDAVFTDNYTRLRKQVAAKKYLQSIKNKRYGGPSSGAPPPS [Agonist P99] — 6-fold higher, 2060 nM

Source: patent publication US20080026996A1, “Selective Vpac2 Receptor Reptide Agonists” (ELI LILLY AND COMPANY, priority 2004, published 2008)
